ChEMBL document CHEMBL5442175, “EUbOPEN Chemogenomics Library - PDSP Secondary Binding” (2024)
Where a name gives a salt, the structure may show the parent alone.

Assays:
D(1B) dopamine receptor = D(1B) dopamine receptor (Homo sapiens, UniProt P21918); experiment: (§1) PDSP Secondary Binding target: DRD5 - Compounds are tested at 10 uM concentration, plate are incubated at room temperature in the dark for 90 minutes. Reaction are stopped by vacuum filtration onto 0.3% polyethyleneimine soaked filter mats using Filtermate harvester. Scintillation cocktail is then melted onto microwave-dried filters on a hot plate and the radio activity is counted in Microbia counter.
Chain of D(1B) dopamine receptor (P21918 whole entry): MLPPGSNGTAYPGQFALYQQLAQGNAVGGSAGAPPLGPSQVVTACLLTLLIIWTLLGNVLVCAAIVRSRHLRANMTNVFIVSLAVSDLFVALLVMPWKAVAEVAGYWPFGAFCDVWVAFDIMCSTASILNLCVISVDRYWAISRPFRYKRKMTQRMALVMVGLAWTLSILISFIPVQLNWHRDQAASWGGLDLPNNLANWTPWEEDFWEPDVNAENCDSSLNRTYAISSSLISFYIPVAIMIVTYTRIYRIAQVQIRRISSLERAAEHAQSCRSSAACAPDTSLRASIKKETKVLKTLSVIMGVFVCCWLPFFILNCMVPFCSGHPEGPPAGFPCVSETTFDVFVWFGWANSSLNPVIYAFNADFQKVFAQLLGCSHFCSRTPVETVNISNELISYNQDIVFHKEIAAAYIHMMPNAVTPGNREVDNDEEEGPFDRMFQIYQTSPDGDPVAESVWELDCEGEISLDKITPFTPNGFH

[1] = target: 5-hydroxytryptamine receptor 1D (Homo sapiens, UniProt P28221); experiment: as §1, with “HTR1D” for “DRD5”
Chain of 5-hydroxytryptamine receptor 1D (P28221 whole entry): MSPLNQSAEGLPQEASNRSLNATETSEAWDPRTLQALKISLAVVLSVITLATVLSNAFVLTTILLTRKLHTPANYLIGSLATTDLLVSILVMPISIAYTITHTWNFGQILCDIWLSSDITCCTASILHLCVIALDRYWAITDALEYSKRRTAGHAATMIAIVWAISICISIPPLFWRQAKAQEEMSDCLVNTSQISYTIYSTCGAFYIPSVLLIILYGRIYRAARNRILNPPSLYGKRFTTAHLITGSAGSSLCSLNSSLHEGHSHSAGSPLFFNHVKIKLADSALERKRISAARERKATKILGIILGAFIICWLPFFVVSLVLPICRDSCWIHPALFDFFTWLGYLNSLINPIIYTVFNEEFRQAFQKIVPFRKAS

[2] = target: Sigma non-opioid intracellular receptor 1 (Homo sapiens, UniProt Q99720); experiment: as §1, with “SIGMAR1” for “DRD5”
Chain of Sigma non-opioid intracellular receptor 1 (Q99720 whole entry): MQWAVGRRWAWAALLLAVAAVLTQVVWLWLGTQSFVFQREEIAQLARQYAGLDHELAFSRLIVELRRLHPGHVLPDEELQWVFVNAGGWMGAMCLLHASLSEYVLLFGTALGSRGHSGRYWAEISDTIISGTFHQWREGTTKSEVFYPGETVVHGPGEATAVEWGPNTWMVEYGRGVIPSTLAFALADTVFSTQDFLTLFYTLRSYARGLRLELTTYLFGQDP

[3] = target: T1, Alpha-1B adrenergic receptor (Homo sapiens, UniProt P35368); experiment: as §1, with “ADRA1B” for “DRD5”
T1 sequence (P35368 whole entry): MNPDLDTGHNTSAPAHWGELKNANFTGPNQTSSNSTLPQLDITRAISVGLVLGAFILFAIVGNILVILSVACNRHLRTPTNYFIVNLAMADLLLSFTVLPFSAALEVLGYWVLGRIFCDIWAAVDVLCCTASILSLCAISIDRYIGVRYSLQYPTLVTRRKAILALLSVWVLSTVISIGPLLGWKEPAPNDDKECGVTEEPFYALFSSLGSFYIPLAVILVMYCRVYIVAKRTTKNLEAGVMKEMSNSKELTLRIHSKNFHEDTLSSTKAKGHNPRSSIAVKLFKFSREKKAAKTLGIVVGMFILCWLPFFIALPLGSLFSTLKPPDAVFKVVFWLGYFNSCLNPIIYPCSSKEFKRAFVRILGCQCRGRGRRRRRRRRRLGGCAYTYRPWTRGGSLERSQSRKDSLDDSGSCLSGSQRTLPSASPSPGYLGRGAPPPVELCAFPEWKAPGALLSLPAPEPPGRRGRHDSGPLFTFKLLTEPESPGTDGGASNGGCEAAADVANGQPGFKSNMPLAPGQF

[4] = target: T2, Alpha-1D adrenergic receptor (Homo sapiens, UniProt P25100); experiment: as §1, with “ADRA1D” for “DRD5”
T2 sequence (P25100 whole entry): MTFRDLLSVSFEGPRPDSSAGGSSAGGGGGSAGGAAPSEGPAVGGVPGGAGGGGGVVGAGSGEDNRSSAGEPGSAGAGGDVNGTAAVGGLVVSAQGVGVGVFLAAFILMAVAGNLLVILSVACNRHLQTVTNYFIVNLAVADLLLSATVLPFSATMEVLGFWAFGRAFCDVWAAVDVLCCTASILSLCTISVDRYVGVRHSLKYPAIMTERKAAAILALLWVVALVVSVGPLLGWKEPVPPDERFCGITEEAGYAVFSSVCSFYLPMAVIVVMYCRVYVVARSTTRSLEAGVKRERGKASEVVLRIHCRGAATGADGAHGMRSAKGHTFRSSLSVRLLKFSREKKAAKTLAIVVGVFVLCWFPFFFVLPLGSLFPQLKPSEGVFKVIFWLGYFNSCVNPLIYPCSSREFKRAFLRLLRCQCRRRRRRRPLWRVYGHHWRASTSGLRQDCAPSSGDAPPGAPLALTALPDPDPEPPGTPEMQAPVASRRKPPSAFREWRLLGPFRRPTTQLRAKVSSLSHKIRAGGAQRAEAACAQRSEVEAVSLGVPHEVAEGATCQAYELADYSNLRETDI

[5] = target: 5-hydroxytryptamine receptor 2A (Homo sapiens, UniProt P28223); experiment: as §1, with “HTR2A” for “DRD5”
Chain of 5-hydroxytryptamine receptor 2A (P28223 whole entry): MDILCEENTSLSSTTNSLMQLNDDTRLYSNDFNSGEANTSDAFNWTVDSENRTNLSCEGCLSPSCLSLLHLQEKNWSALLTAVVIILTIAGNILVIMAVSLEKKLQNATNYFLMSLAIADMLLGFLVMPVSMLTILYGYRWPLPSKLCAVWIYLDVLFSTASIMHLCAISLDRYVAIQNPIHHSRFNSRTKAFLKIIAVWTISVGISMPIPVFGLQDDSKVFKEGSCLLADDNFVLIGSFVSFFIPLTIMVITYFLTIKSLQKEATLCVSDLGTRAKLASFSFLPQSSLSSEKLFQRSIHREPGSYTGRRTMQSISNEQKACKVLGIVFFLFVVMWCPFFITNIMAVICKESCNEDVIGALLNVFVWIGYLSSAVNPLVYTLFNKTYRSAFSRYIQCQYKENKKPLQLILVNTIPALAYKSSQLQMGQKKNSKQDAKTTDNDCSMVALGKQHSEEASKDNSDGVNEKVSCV

[6] = target: 5-hydroxytryptamine receptor 6 (Homo sapiens, UniProt P50406); experiment: as §1, with “HTR6” for “DRD5”
Chain of 5-hydroxytryptamine receptor 6 (P50406 whole entry): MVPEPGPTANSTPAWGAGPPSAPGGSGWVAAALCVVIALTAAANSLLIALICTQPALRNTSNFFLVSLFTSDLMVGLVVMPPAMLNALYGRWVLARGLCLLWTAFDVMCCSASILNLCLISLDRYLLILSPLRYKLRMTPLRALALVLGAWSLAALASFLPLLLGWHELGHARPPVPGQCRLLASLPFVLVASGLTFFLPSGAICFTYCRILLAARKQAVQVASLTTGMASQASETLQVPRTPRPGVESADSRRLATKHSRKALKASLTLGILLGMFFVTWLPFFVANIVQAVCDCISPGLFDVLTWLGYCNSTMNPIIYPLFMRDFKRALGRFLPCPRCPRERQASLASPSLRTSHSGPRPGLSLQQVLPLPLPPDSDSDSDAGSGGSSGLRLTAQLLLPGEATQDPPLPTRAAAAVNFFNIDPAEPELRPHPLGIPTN

D(2) dopamine receptor = D(2) dopamine receptor (Homo sapiens, UniProt P14416); experiment: as §1, with “DRD2” for “DRD5”
Chain of D(2) dopamine receptor (P14416 whole entry): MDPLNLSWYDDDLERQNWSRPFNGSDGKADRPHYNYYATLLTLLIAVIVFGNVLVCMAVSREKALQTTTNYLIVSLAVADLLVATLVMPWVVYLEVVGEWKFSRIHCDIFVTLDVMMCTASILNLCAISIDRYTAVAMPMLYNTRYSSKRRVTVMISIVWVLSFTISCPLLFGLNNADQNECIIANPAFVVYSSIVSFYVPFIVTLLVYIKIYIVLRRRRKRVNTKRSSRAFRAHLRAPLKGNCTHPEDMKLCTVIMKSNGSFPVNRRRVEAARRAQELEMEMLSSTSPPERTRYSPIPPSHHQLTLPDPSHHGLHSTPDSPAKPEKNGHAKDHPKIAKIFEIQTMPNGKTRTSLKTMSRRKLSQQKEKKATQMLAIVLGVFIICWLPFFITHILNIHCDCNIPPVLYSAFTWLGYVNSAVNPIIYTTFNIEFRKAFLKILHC

[7] = target: Sodium-dependent noradrenaline transporter (Homo sapiens, UniProt P23975); experiment: as §1, with “SLC6A2” for “DRD5”
Chain of Sodium-dependent noradrenaline transporter (P23975 whole entry): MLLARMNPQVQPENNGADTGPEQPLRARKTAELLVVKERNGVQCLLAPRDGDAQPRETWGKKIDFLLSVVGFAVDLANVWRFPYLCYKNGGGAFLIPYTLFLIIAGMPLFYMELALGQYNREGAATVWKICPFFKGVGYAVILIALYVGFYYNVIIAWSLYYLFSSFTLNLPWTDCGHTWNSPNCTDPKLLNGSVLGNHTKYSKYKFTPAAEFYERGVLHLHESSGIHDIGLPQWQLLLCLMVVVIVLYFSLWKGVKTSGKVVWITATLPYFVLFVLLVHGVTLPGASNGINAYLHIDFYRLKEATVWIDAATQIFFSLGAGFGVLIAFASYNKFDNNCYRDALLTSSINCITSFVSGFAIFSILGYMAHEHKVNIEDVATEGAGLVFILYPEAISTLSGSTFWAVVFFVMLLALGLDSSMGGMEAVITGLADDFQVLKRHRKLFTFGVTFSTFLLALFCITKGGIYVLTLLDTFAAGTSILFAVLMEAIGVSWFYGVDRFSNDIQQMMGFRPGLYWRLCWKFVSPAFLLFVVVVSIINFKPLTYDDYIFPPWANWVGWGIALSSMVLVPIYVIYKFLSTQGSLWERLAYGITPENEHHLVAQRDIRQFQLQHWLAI

[8] = target: T3, Muscarinic acetylcholine receptor M1 (Homo sapiens, UniProt P11229); experiment: as §1, with “CHRM1” for “DRD5”
T3 sequence (P11229 whole entry): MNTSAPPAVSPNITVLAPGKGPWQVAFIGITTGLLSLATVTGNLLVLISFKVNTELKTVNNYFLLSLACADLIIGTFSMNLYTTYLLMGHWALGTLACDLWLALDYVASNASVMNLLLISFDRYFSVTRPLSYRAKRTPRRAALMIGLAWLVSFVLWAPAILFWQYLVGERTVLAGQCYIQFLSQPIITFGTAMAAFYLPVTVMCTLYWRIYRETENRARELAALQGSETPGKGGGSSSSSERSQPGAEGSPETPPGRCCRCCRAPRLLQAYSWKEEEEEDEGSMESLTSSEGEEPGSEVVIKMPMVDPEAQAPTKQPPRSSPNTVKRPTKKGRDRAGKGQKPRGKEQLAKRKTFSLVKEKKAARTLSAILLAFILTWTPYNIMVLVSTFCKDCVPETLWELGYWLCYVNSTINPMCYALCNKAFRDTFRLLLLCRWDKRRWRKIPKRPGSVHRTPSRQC

Structure (SMILES) | Ki (D(1B) dopamine receptor) [nM] | Ki [1] [nM] | Ki [2] [nM] | Ki [3] [nM] | Ki [4] [nM] | Ki [5] [nM] | Ki [6] [nM] | Ki (D(2) dopamine receptor) [nM] | Ki [7] [nM] | Ki [8] [nM]
CCCCCNC(=N)N/N=C/c1c[nH]c2ccc(OC)cc12 [TEGASEROD MALEATE] | 4120 | 50.1 | 177 | 2610 | 1640 | 431 | 566 | 297 |  | 
COc1ccc(NC(=O)c2ccc(-c3ccc(-c4noc(C)n4)cc3C)cc2)cc1OCCN(C)C |  | 15 | 3110 |  |  | 35.7 |  |  | 664 | 1910
CN1C[C@H](C(=O)N[C@]2(C)O[C@@]3(O)[C@@H]4CCCN4C(=O)[C@H](Cc4ccccc4)N3C2=O)C[C@@H]2c3cccc4[nH]cc(c34)C[C@H]21 [DIHYDROERGOTAMINE MESYLATE] | 2950 |  | 604 | 119 |  |  | 225 | 60.9 |  | 
C[C@H](Cc1cc2c(c(C(N)=O)c1)N(CCCO)CC2)NCCOc1ccccc1OCC(F)(F)F [SILODOSIN] |  | 91.7 |  | 196 | 47.3 |  |  | 989 |  | 
COc1cc(-n2cnc3cc(-c4ccc(Cl)cc4)sc3c2=O)ccc1OCCN1CCCC1 |  | 3560 | 12 |  | 6050 |  |  |  |  | 1240
Clc1cccc(COc2cncc(N3CCNCC3)n2)c1 |  | 69.5 | 32.7 |  |  | 105 |  |  |  | 955
Cc1nc(-c2ccc(-c3ccc(C(=O)N4CCc5cc6c(cc54)C4(CCN(C)CC4)CO6)cc3)c(C)c2)no1 [SB-224289] | 1080 |  | 4340 |  | 2110 | 1780 |  |  | 1730 | 1260
S=C(NCCCc1c[nH]cn1)NCCCN(Cc1ccc(Cl)c(Cl)c1)c1ccc(Br)cn1 | 1980 |  |  | 2030 | 1700 | 202 | 1330 |  | 618 | 2580
OCc1cc(C(O)CNCCCCCCOCCCCc2ccccc2)ccc1O (stereo unspecified) [SALMETEROL] |  | 1040 |  |  | 963 |  |  |  | 382 | 
CN1CCN(c2ccc(Nc3c4ccccc4nc4ccccc34)cc2)CC1 |  | 1620 | 412 | 2720 | 1750 |  | 378 |  | 120 | 717
CN(C)C(=O)N[C@H]1CC[C@H](CCN2CCN(c3cccc(Cl)c3Cl)CC2)CC1 [CARIPRAZINE HYDROCHLORIDE] |  | 76.8 |  | 1970 | 323 |  | 1300 |  |  | 
Cc1c(P(=S)(c2ccccc2)c2ccccc2)n2ccccc2[n+]1C/C=C/c1ccccc1 |  |  | 816 |  |  | 2790 |  |  | 956 | 1180
N#Cc1ccc2[nH]cc(CCCCN3CCN(c4ccc5oc(C(N)=O)cc5c4)CC3)c2c1 [VILAZODONE HYDROCHLORIDE] |  | 369 | 14.2 | 2900 | 716 |  | 960 | 553 | 15.5 | 
COC(=O)C1=C(C)NC(C)=C(C(=O)OCCCN2CCC(c3ccccc3)(c3ccccc3)CC2)[C@H]1c1cccc([N+](=O)[O-])c1 [NIGULDIPINE] | 1240 |  | 320 |  |  |  | 878 | 280 | 857 | 

Further lines, results first:

Ki (D(1B) dopamine receptor) [nM] | Ki [1] [nM] | Ki [2] [nM] | Ki [3] [nM] | Ki [4] [nM] | Ki [5] [nM] | Ki [6] [nM] | Ki (D(2) dopamine receptor) [nM] | Ki [7] [nM] | Ki [8] [nM] | Structure (SMILES)
 |  | 696 | 847 |  |  | 5110 |  | > 10000 |  | O=S1(=O)c2cccc3cccc(c23)N1CCCN1CCN(c2ccc(F)cc2)CC1 [FANANSERIN]
344 | 24 |  | 57.9 | 76.4 | 18.3 | 308 | 5.99 | 689 |  | O=c1ccc2ccc(OCCCCN3CCN(c4cccc5sccc45)CC3)cc2[nH]1 [BREXPIPRAZOLE]
 | 885 | 150 | 3640 | 333 | 230 | 2090 | 1180 |  |  | CN1CCCC(n2nc(Cc3ccc(Cl)cc3)c3ccccc3c2=O)CC1 (stereo unspecified) [AZELASTINE HYDROCHLORIDE]
493 |  | 426 | 598 |  |  | 287 | 184 | 685 |  | Cc1nc2sccn2c(=O)c1CCN1CCC(=C(c2ccc(F)cc2)c2ccc(F)cc2)CC1 [RITANSERIN]
 | 122 |  | 572 | 445 |  | 1110 | 736 |  |  | CCc1nn(CCCN2CCN(c3cccc(Cl)c3)CC2)c(=O)n1CCOc1ccccc1 [NEFAZODONE HYDROCHLORIDE]
 | 419 | 1310 | 1310 | 767 | 726 | 144 | 1550 |  |  | Cc1ccc2c(c1)c1c(n2CCc2ccc(C)nc2)CCN(C)C1 [LATREPIRDINE]
 | 2780 | 2280 | 3540 | 2080 | 548 |  |  |  | 2330 | CCc1ccc(OCc2ccccc2C(=O)Nc2ccc3nc(C)cc(N)c3c2)cc1
